Entries after “also recorded” stand apart in the source; their conditions may differ.
How the values were obtained:
HeLa cells = test: PAGE fluorescence gel analysis of STR uptake; type: cell-based, human; details: FITC-labeled, 5 μM, 6-48 hrs
Method: PAGE Gel Analysis of STR Uptake. Approximately 1×10^5 HeLa cells were seeded in each well of a 12-well plate. Cells were treated with 5 μM of either FITC-STR4 or FITC-STR22 for 6, 12, 24 and 48 hrs. After the indicated treatment time, media was aspirated, cells were washed with PBS (2×1 mL) and treated with 0.25% trypsin (0.2 mL) for 5 min at 37° C. The trypsin was quenched with the addition of 1 mL of media and the detached cells were transferred to a microcentrifuge tube and centrifuged at 2000 g for 1.5 min. The media was aspirated, 20 μL of RIPA buffer (50 mM Tris, pH 7.4, 150 mM NaCl, 0.25% deoxycholate, 1% NP-40, 1 mM EDTA) was added and cells were incubated for 10 min on ice. After lysis, 6.6 μL of 4×SDS loading buffer was added, samples were heated to 95° C. for 5 minutes, cooled to RT and resolved on a 4-20% Tris-glycine SDS-PAGE gel with a fluorescent filter to image FITC-labeled molecules.

HIF1α = test: Western blot of HIF1α under hypoxia, MDA-MB-231; type: cell-based, human; details: MDA-MB-231, hypoxia
Method: To study the effects of STR22 on hypoxia-induced gene transcription factor DNA binding and target gene expression, the induction of HIF1α and downstream HRE-target genes like VEGFA, PDK1, PGK1 and GLUT1 in response to acute hypoxia (e.g., 1% 02 for 6 hr) was validated.
Immunoblotting. Following indicated treatments, cells were first washed with ice-cold PBS. Whole-cell extracts were prepared by directly lysing cells with Laemmli sample buffer (Bio-rad, 1610747) supplemented with 2-Mercaptoethanol (Gibco, 21985023), protease inhibitor (Roche, 4693159001), PMSF (Roche, 10837091001) and phosphatase inhibitor (GB-450) at 4° C. Finally, protein samples were boiled at 95° C. for 5 mins. Western blotting was performed using antibodies for XBP1 (Biolegend, 9D11A43), HIF1α (Novus Biologicals, NB100-479), GAPDH (Santa Cruz Biotech, sc-32233) and α-tubulin (Invitrogen, MA1-19401) were used. Blots were imaged using Li—COR Odyssey Fc.

MDA-MB-231 cells = test: Trypan blue cell viability; type: cell-based, human; details: MDA-MB231, 20 μM, 24 hours
From the text: Trypan Blue Cell Viability Assay. […] The cell suspension was then collected and subjected for trypan blue viability reading using trypan blue cell viability analyzer (Beckman Coulter Vi-CELL XR).

SUM159 cells = test: Boyden chamber invasion, SUM159; type: cell-based; details: SUM159, hypoxia, 24 hours
MDA-MB-231 tumors = test: MDA-MB-231 mammary fat pad xenograft in nude mice; type: in vivo, mouse
From the text: Moreover, hypoxia-induced gene signatures have also been associated with poor disease outcomes in TNBC patients^41,42. Given these associations, the inventors sought to determine how STR22 antagonism of HIF1α-dependent signaling would affect TNBC cell phenotypes in cell culture and in vivo. […] Therefore, the inventors sought to determine whether STR22 treatment would affect the growth of TNBC cells in the in vivo context of tumor xenografts. To do so, the inventors generated MDA-MB-231 xenografts in the mammary fat pads of nude mice; after tumors reached 100 mm^3-a size previously shown capable of creating hypoxic microenvironments^43-matched cohorts (n=10) were treated once every three days with intratumoral injections of STR22 or saline vehicle alone (FIG. 104C). […] A separate study using fewer MDA-MB-231 cells to generate xenografts replicated these findings ([…]). […] Mouse Xenograft Studies. […] Tumor growth was monitored twice a week using digital caliper measurements in two dimensions (A, B) to estimate volume. Tumor volume was calculated as: (A*B^2)/2, where B is the […] diameter and A is the diameter perpendicular to B. Tumor growth (V/V0) or final volume/mass was shown as mean+/-s.e.m. with P values determined by multiple unpaired t-tests. […]

Substance: XBP1-derived stapled dimer: RRK^KNR^AAQTARDRKKA#LSELEQQVVDLE linked to RRK^KNR^AAQTARDRKKARLSEL#QQVVDLE; FIG. 27 [STR22]
- full-length compound inside cells (fluorescence gel) (HeLa cells): significantly higher concentrations compared to STR4; also recorded: stable over time
- induction of HIF1α protein (HIF1α): did not affect the induction of HIF1α protein
- cell viability (MDA-MB-231 cells): did not impact cell viability
- cell invasion (SUM159 cells): inhibited cell invasion
- HIF1α-dependent target gene expression in tumors (qPCR) (MDA-MB-231 tumors; 24 hours after last injection): inhibition of hypoxia-induced gene expression
- tumor volume (MDA-MB-231 tumors; nude mice, intratumoral injections, about three weeks): significantly inhibited

— patent US20250136650A1, “COMPOSITIONS AND METHODS FOR DNA BINDING AND TRANSCRIPTIONAL REGULATION” (THE UNIVERSITY OF CHICAGO, priority 2021, published 2025)
